In general, IC50 refers to the midpoint of a concentration-inhibition curve.

Data set [1] is described as follows: Detection of glutathione conjugates (GSH). Conditions: in vitro, relative to control. On the set-up: key: NF = in vitro no adduct formation relative to control. It is filed as in vitro ADME, human. The text has this:
Detection of Glutathione Conjugates (GSH) The assay conditions for the detection of glutathione conjugates follow the procedure described by C. M. Dieckhaus et al. in Chem. Res. Toxicol. 2005, 18, 630-63.

The next data set concerns the target hERG (Homo sapiens, UniProt Q12809). Briefly: hERG current measurement (automated patch clamp). It is filed as cell-based. The method, then: The hERG current measurement was performed at an automated patch clamp system following the procedure described in R. E. Martin et al. in Bio org.
In general terms: Block of hERG is tested as a sign of cardiac risk.

A further data set relates to Aβ40 in brain. The data set is described as follows: In vivo inhibition of Aβ40 in brain of wild-type mice. Conditions: Mus musculus, po; 10 mg/kg p.o., brain Aβ40 after 4 h, female C57Bl/6J mice; read-out: in vivo effect, Percentage of control @ 10 mg/kg p.o. The method, then:
In Vivo Experiments. […] The test compound was dissolved in 5% EtOH, 10% Solutol and was applied per os at 10 ml/kg. After 4 h the animals were sacrificed and brain and plasma were collected. The brain was cut into halves and immediately frozen on dry ice. Brain was used for measurement of Aβ40 and plasma was used for determination of compound exposure. […] Brain tissue was homogenized in 2% DEA buffer in a Roche […] (20'', 4000 rpm) and subsequently centrifuged for 1 h at 100'000 g. DEA was reduced to 0.2% in 50 mM NaCl and one half of the DEA lysate was passed over an Oasis Solid Phase extraction plate (Waters; Cat.Nr. 186000679) which had been activated with MeOH and equilibrated in dH2O (1 ml each). After washes in 10% and 30% MeOH (1 ml each) the AP-peptides were eluted in 0.8 ml 2% NH4OH in 90% MeOH. […] Aβ40 was determined by an AlphaLISA assay (Perkin Elmer). In a white 96well half-area microplate (Perkin Elmer Cat.Nr. 6005561), 20 μl of the reconstituted sample were mixed with 5 μl biotinylated BAP-24 (specific for C-terminus of Aβ40 (Brockhaus, M.; Grunberg, J.; Rohrig, S.; Loetscher, H.; Wittenburg, N.; Baumeister, R.; Jacobsen, […]. Caspase-mediated cleavage is not required for the activity of presenilins in amyloidogenesis and NOTCH signaling. […] The mix was incubated for 1 h at RT in the dark. Then 20 μl Streptavin-coated Donor Beads (Perkin Elmer Cat. Nr. 6760002, final dilution 1:125) were added and this final mix was incubated in the dark for another 30 min at r.t. before RFU was measured in an AlphaScreen Reader(Perkin Elmer Envision 2104).

The target of data set [2] is T1, recombinant human cathepsin E (Homo sapiens, UniProt P14091).
T1 construct: purchased R&D Systems
T1 sequence (P14091 54-396): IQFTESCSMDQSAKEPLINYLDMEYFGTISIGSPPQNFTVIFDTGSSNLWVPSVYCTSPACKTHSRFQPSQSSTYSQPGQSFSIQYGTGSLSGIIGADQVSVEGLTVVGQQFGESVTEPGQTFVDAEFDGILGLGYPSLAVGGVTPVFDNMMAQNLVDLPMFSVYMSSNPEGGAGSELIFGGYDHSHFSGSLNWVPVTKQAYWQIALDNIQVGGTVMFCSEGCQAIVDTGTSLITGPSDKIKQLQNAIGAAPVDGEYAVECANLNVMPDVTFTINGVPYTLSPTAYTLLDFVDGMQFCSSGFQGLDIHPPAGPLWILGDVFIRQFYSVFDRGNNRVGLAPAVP
The data set is described as follows: Cathepsin E fluorescent substrate kinetic assay. It counts as biochemical. To be noted: pH 4.5. The text has this:
(§1) Cathepsin D and Cathepsin E Fluorescent Substrate Kinetic Assays
(§2) The MR121 fluorescence assays described below are based on the fact that MR121 forms a non-fluorescent ground state complex with tryptophan. In solution this formation occurs at millimolar concentrations of tryptophan. The mechanism can be used to design a generic biochemical assay for proteases. […] In absence of protease activity, the substrates remain intact and the MR121 fluorescence is reduced by the high local Trp-concentration. If the substrates are cleaved by the enzymes the MR121 fluorescence is recovered.
(§3) The fluorescent substrate cathepsin D and cathepsin E kinetic assays were performed at room temperature in 384-well microtiter plates (black with clear flat bottom, non binding surface plates from Corning) in a final volume of 51 μl. The test compounds were serially diluted in DMSO (15 concentrations, 1/3 dilution steps) and 1 μl of diluted compounds were mixed for 10 min with 40 μl of cathepsin D (from human liver, Calbiochem) diluted in assay buffer (100 mM sodium acetate, 0.05% BSA, pH 5.5; final concentration: 200 nM) or with 40 μl of recombinant human cathepsin E (R&D Systems) diluted in assay buffer (100 mM sodium acetate, 0.05% BSA, pH 4.5; final concentration: 0.01 nM). […] The slope in the linear range of the kinetic was calculated and the IC50 of the test compounds were determined using a four parameter equation for curve fitting.

For data set [3], the target named is T2, cathepsin D (from human liver) (Homo sapiens, UniProt P07339).
T2 construct: cathepsin D (from human liver, Calbiochem) diluted in assay buffer; purchased Calbiochem; host or cells: human liver
Briefly: Cathepsin D fluorescent substrate kinetic assay. It is filed as biochemical. Conditions: pH 5.5.
Description: as §1, §2, §3

The target of another data set is T3, CYP3A4 (Homo sapiens, UniProt P08684).
T3 construct: 0.2 mg/ml pooled human liver microsomes; from tissue; host or cells: pooled human liver microsomes
The data set is described as follows: CYP inhibition assay, CYP3A4. It counts as in vitro ADME. To be noted: pooled human liver microsomes, midazolam substrate; read-out: CYP IC50 3A4. The method, then: (§4) Inhibition of cytochromes P450 (CYPs) 2C9, 2D6 and 3A4 was assessed using human liver microsomes and CYP-selective substrate metabolism reactions. […] Quenched incubates were stored at −20° C. for at least 1 hour before centrifugation (20,000×g, 20 minutes). Supernatants were removed and diluted 1:1 with water prior to analysis using a RapidFire sample injector system and API4000 mass spectrometer. Peak areas for substrate, metabolite and stable-labelled metabolite standard were determined using MS/MS. The peak area ratios between the metabolite generated by the enzymatic reaction and the internal standard were used in subsequent calculations. The percentage of (DMSO) control activity was calculated for each incubate and IC50 values estimated by non-linear regression. Sulfaphenazole, quinidine or ketoconazole were tested in each CYP2C9, CYP2D6 or CYP3A4 inhibition experiment, respectively, to ensure assay sensitivity and reproducibility.
For orientation: Microsomes from liver hold many membrane-bound enzymes, among them those of drug oxidation.

A further data set has as its target T4, CYP2D6 (Homo sapiens, UniProt P10635).
T4 construct: 0.2 mg/ml pooled human liver microsomes; from tissue; host or cells: pooled human liver microsomes
The data set is described as follows: CYP inhibition assay, CYP2D6. It is filed as in vitro ADME. Conditions: pooled human liver microsomes, dextromethorphan substrate; read-out: CYP IC50 2D6. The method, then: as §4

The next data set has as its target T5, CYP2C9 (Homo sapiens, UniProt P11712).
T5 construct: 0.2 mg/ml pooled human liver microsomes; from tissue; host or cells: pooled human liver microsomes
Briefly: CYP inhibition assay, CYP2C9. It is filed as in vitro ADME. Conditions: pooled human liver microsomes, diclofenac substrate; read-out: CYP IC50 2C9. The method, then: as §4

T2 sequence (P07339 65-412): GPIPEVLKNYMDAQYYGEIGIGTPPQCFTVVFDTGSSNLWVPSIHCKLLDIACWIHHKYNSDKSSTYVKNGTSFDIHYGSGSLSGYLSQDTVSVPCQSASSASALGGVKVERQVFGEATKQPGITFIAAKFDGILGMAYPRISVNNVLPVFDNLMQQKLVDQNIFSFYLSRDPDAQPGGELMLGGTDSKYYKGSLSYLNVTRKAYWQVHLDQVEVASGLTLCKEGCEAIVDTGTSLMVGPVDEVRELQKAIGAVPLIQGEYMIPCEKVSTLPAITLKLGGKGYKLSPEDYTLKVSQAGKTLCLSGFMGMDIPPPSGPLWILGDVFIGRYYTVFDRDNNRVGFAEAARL
T3 sequence (P08684 whole entry): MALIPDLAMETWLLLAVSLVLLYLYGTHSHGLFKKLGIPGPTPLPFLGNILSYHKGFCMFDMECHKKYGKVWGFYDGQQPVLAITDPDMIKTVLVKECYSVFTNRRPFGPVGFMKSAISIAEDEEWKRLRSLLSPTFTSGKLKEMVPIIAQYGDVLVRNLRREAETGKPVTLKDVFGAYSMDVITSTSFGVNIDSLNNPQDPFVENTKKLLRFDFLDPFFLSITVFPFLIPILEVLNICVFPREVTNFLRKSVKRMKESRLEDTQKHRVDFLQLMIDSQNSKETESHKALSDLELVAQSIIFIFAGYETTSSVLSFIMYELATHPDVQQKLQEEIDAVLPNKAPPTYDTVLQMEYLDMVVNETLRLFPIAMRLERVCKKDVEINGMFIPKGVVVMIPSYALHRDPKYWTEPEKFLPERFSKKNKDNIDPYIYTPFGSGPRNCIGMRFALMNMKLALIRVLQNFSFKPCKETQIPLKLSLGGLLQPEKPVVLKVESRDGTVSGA
hERG, sequence (Q12809 whole entry): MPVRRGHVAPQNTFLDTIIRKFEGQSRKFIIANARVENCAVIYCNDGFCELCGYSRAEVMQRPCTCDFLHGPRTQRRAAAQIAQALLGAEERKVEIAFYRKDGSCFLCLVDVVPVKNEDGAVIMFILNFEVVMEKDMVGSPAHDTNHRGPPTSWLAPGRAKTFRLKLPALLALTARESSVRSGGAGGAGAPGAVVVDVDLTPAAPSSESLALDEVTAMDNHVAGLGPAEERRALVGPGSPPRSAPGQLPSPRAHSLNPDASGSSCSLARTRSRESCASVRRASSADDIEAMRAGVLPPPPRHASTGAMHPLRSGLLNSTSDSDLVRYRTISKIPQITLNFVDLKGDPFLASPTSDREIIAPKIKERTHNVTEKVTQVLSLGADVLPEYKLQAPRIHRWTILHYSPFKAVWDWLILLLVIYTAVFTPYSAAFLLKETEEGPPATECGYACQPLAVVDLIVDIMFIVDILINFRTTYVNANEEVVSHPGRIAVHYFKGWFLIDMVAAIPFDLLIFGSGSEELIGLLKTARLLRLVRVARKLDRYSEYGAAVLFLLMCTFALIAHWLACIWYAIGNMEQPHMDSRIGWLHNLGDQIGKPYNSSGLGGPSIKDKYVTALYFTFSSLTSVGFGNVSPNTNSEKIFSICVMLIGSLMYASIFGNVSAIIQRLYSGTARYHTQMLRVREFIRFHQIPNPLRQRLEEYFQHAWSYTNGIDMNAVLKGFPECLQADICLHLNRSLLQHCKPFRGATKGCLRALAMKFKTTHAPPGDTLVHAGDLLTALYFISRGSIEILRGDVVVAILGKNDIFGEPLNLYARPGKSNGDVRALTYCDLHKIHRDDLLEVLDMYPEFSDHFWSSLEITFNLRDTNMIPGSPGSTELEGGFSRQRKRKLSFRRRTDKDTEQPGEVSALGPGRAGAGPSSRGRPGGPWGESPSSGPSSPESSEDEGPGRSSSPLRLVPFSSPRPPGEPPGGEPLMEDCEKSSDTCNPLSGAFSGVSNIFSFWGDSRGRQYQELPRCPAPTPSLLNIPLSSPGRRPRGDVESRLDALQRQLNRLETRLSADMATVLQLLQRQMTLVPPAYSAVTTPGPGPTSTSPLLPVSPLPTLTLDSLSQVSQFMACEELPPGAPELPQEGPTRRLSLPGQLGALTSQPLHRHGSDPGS
T5 sequence (P11712 whole entry): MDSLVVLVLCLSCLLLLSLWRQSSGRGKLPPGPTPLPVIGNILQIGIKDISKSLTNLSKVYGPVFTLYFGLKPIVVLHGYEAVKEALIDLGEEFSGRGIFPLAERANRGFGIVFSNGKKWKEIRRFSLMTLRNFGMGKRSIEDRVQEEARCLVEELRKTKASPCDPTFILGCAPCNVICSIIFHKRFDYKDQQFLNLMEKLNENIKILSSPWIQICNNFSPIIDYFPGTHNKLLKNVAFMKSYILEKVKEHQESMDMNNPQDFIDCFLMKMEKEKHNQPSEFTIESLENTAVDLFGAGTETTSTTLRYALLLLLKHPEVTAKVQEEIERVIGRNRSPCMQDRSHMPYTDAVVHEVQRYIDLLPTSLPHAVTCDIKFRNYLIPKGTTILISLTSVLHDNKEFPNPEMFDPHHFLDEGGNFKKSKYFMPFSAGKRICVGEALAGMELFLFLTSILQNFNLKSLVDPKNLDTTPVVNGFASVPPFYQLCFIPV
T4 sequence (P10635 whole entry): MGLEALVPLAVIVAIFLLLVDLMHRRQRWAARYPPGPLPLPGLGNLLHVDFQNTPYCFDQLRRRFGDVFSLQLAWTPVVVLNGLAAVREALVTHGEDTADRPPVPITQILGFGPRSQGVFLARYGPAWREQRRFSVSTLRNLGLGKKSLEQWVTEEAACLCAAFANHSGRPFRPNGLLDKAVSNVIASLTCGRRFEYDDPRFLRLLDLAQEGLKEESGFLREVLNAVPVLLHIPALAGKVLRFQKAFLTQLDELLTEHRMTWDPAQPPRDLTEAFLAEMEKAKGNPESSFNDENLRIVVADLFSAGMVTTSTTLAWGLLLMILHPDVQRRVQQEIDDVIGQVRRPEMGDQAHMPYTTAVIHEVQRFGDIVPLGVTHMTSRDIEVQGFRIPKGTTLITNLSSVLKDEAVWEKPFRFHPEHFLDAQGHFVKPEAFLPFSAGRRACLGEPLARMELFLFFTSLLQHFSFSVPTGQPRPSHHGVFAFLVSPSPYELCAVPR

For `NC1=N[C@](CF)(c2cc(NC(=O)c3nn(C(F)F)cc3Cl)ccc2F)C[C@@H](C(F)(F)F)O1` [Example 46, N-(3-((4S,6S)-2-Amino-4-(fluoromethyl)-6-(trifluoromethyl)-5,6-dihydro-4H-1,3-oxazin-4-yl)-4-fluorophenyl)-4-chloro-1-(difluoromethyl)-1H-pyrazole-3-carboxamide], the “GSH human (glutathione adduct formation)” value in data set [1] is “NF”. The “hERG Inhibition @ 10 μM” value on hERG is recorded as 8. Moreover, the response vs control in vivo at 10 mg/kg with Aβ40 in brain amounted to 61%. Besides, the IC50 was over 200 µM in data set [2]; over 200 µM in data set [3]; over 50 µM at CYP3A4; 24 µM on CYP2D6; over 50 µM on CYP2C9.

As for `COc1cnc(C(=O)Nc2ccc(F)c([C@]3(CF)C[C@@H](C(F)(F)F)OC(N)=N3)c2)cn1` [Example 36, N-(3-((4S,6S)-2-Amino-4-(fluoromethyl)-6-(trifluoromethyl)-5,6-dihydro-4H-1,3-oxazin-4-yl)-4-fluorophenyl)-5-methoxypyrazine-2-carboxamide], the “GSH human (glutathione adduct formation)” value in data set [1] is recorded as “NF”. Also, the “hERG Inhibition @ 10 μM” value at hERG is on record as 7. Also, the response vs control in vivo at 10 mg/kg in the data set with Aβ40 in brain amounted to 88%. The IC50 is over 200 µM in data set [2]; over 200 µM in data set [3]; over 50 µM at CYP3A4; 16 µM on CYP2D6; over 50 µM on CYP2C9.

As to `N#Cc1ccc(C(=O)Nc2ccc(F)c([C@]3(CF)C[C@@H](C(F)(F)F)OC(N)=N3)c2)nc1` [Example 3, N-(3-((4S,6S)-2-amino-4-(fluoromethyl)-6-(trifluoromethyl)-5,6-dihydro-4H-1,3-oxazin-4-yl)-4-fluorophenyl)-5-cyanopicolinamide], the IC50 in data set [2] and in data set [3] was over 200 µM each time.
